In ChEMBL document CHEMBL1944578, “Synthesis and anticonvulsant activity of novel 2,6-diketopiperazine derivatives. Part 2: Perhydropyrido[1,2-a]pyrazines” (Eur J Med Chem, 2012):
Calls of active or inactive are those of the source. The rule behind the calls is not given here.

What was measured:
Rattus norvegicus [1] = test: Neurotoxicity in Sprague-Dawley rat assessed as neurological impairment at 30 mg/kg, po measured after 2 hrs; type: toxicity, organism-based; design: dose 30 mg/kg, route oral; conditions: in vivo
Mus musculus [2] = test: Anticonvulsant activity in Carworth farms No.1 albino mouse assessed as protection against maximum electroshock at 100 mg/kg, ip measured after 4 hrs; type: functional, organism-based; design: dose 100 mg/kg
Mus musculus [3] = test: Anticonvulsant activity in ip dosed Carworth farms No.1 albino mouse assessed as protection against 6 Hz electric current-induced seizure measured after 0.25 hrs; type: functional
Mus musculus [4] = test: Neurotoxicity in Carworth farms No.1 albino mouse assessed as neurological impairment at 300 mg/kg, ip measured after 4 hrs; type: toxicity, organism-based; design: dose 300 mg/kg, route intraperitoneal; conditions: in vivo
Mus musculus [5] = test: Neurotoxicity in Carworth farms No.1 albino mouse assessed as neurological impairment at 30 mg/kg, ip measured after 0.5 hrs; type: toxicity, organism-based; design: dose 30 mg/kg, route intraperitoneal; conditions: in vivo
Mus musculus [6] = test: Anticonvulsant activity in Carworth farms No.1 albino mouse assessed as protection against subcutaneous metrazole-induced seizures at 300 mg/kg, ip measured after 4 hrs; type: functional, organism-based; design: dose 300 mg/kg
Mus musculus [7] = test: Neurotoxicity in Carworth farms No.1 albino mouse assessed as neurological impairment at 100 mg/kg, ip measured after 1 hr; type: toxicity, organism-based; design: dose 100 mg/kg, route intraperitoneal; conditions: in vivo
Mus musculus [8] = test: Neurotoxicity in Carworth farms No.1 albino mouse assessed as neurological impairment at 100 mg/kg, ip measured after 4 hrs; type: toxicity, organism-based; design: dose 100 mg/kg, route intraperitoneal; conditions: in vivo
Mus musculus [9] = test: Anticonvulsant activity in Carworth farms No.1 albino mouse assessed as protection against maximum electroshock at 30 mg/kg, ip measured after 4 hrs; type: functional, organism-based; design: dose 30 mg/kg
Rattus norvegicus [10] = test: Neurotoxicity in Sprague-Dawley rat assessed as neurological impairment at 30 mg/kg, po measured after 0.5 hrs; type: toxicity, organism-based; design: dose 30 mg/kg, route oral; conditions: in vivo
Mus musculus [11] = test: Anticonvulsant activity in Carworth farms No.1 albino mouse assessed as protection against maximum electroshock at 100 mg/kg, ip measured after 0.5 hrs; type: functional, organism-based; design: dose 100 mg/kg
Mus musculus [12] = test: Neurotoxicity in Carworth farms No.1 albino mouse assessed as neurological impairment at 100 mg/kg, ip measured after 0.25 hrs; type: toxicity, organism-based; design: dose 100 mg/kg, route intraperitoneal; conditions: in vivo
Rattus norvegicus [13] = test: Toxicity in Sprague-Dawley rat assessed as mortality at 900 mg/kg, ip measured after 0.5 hrs; type: organism-based; design: dose 900 mg/kg, route intraperitoneal; conditions: in vivo
Mus musculus [14] = test: Anticonvulsant activity in Carworth farms No.1 albino mouse assessed as protection against subcutaneous metrazole-induced seizures at 30 mg/kg, ip measured after 0.5 hrs; type: functional, organism-based; design: dose 30 mg/kg
Mus musculus [15] = test: Anticonvulsant activity in Carworth farms No.1 albino mouse assessed as protection against 6 Hz electric current-induced seizure at 100 mg/kg, ip measured after 4 hrs; type: functional, organism-based; design: dose 100 mg/kg
Rattus norvegicus [16] = test: Neurotoxicity in Sprague-Dawley rat assessed as neurological impairment at 30 mg/kg, po measured after 4 hrs; type: toxicity, organism-based; design: dose 30 mg/kg, route oral; conditions: in vivo
Mus musculus [17] = test: Anticonvulsant activity in Carworth farms No.1 albino mouse assessed as protection against maximum electroshock at 300 mg/kg, ip measured after 4 hrs; type: functional, organism-based; design: dose 300 mg/kg
Mus musculus [18] = test: Anticonvulsant activity in Carworth farms No.1 albino mouse assessed as protection against 6 Hz electric current-induced seizure at 100 mg/kg, ip measured after 1 hrs; type: functional, organism-based; design: dose 100 mg/kg
Rattus norvegicus [19] = test: Neurotoxicity in Sprague-Dawley rat assessed as neurological impairment at 30 mg/kg, po measured after 0.25 hrs; type: toxicity, organism-based; design: dose 30 mg/kg, route oral; conditions: in vivo
Mus musculus [20] = test: Anticonvulsant activity in Carworth farms No.1 albino mouse assessed as protection against maximum electroshock at 30 mg/kg, ip measured after 0.5 hrs; type: functional, organism-based; design: dose 30 mg/kg
Mus musculus [21] = test: Anticonvulsant activity in Carworth farms No.1 albino mouse assessed as protection against subcutaneous metrazole-induced seizures at 100 mg/kg, ip measured after 4 hrs; type: functional, organism-based; design: dose 100 mg/kg
Mus musculus [22] = test: Neurotoxicity in Carworth farms No.1 albino mouse assessed as neurological impairment at 100 mg/kg, ip measured after 2 hr; type: toxicity, organism-based; design: dose 100 mg/kg, route intraperitoneal; conditions: in vivo
Mus musculus [23] = test: Neurotoxicity in Carworth farms No.1 albino mouse assessed as neurological impairment at 300 mg/kg, ip measured after 0.5 hrs; type: toxicity, organism-based; design: dose 300 mg/kg, route intraperitoneal; conditions: in vivo
Rattus norvegicus [24] = test: Anticonvulsant activity in Sprague-Dawley rat assessed as protection against maximum electroshock at 30 mg/kg, po measured after 4 hrs; type: functional, organism-based; design: dose 30 mg/kg
Mus musculus [25] = test: Anticonvulsant activity in Carworth farms No.1 albino mouse assessed as protection against 6 Hz electric current-induced seizure at 100 mg/kg, ip measured after 0.5 hrs; type: functional, organism-based; design: dose 100 mg/kg
Mus musculus [26] = test: Anticonvulsant activity in Carworth farms No.1 albino mouse assessed as protection against subcutaneous metrazole-induced seizures at 300 mg/kg, ip measured after 0.5 hrs; type: functional, organism-based; design: dose 300 mg/kg
Rattus norvegicus [27] = test: Toxicity in Sprague-Dawley rat assessed as body weight change in unprotected animals at 900 mg/kg, ip measured after 0.5 hrs; type: organism-based; design: dose 900 mg/kg, route intraperitoneal; conditions: in vivo
Rattus norvegicus [28] = test: Anticonvulsant activity in Sprague-Dawley rat assessed as protection against pilocarpine-induced status at 900 mg/kg, ip measured after 0.5 hrs; type: functional, organism-based; design: dose 900 mg/kg
Mus musculus [29] = test: Anticonvulsant activity in Carworth farms No.1 albino mouse assessed as protection against maximum electroshock at 300 mg/kg, ip measured after 0.5 hrs; type: functional, organism-based; design: dose 300 mg/kg
Rattus norvegicus [30] = test: Anticonvulsant activity in Sprague-Dawley rat assessed as protection against maximum electroshock at 30 mg/kg, po measured after 0.5 hrs; type: functional, organism-based; design: dose 30 mg/kg
Mus musculus [31] = test: Anticonvulsant activity in Carworth farms No.1 albino mouse assessed as protection against subcutaneous metrazole-induced seizures at 100 mg/kg, ip measured after 0.5 hrs; type: functional, organism-based; design: dose 100 mg/kg
Mus musculus [32] = test: Anticonvulsant activity in Carworth farms No.1 albino mouse assessed as protection against 6 Hz electric current-induced seizure at 100 mg/kg, ip measured after 2 hrs; type: functional, organism-based; design: dose 100 mg/kg
Mus musculus [33] = test: Neurotoxicity in Carworth farms No.1 albino mouse assessed as neurological impairment at 100 mg/kg, ip measured after 0.5 hrs; type: toxicity, organism-based; design: dose 100 mg/kg, route intraperitoneal; conditions: in vivo
Mus musculus [34] = test: Anticonvulsant activity in Carworth farms No.1 albino mouse assessed as protection against subcutaneous metrazole-induced seizures at 30 mg/kg, ip measured after 4 hrs; type: functional, organism-based; design: dose 30 mg/kg
Rattus norvegicus [35] = test: Anticonvulsant activity in Sprague-Dawley rat assessed as protection against maximum electroshock at 30 mg/kg, po measured after 0.25 hrs; type: functional, organism-based; design: dose 30 mg/kg
Rattus norvegicus [36] = test: Neurotoxicity in Sprague-Dawley rat assessed as neurological impairment at 30 mg/kg, po measured after 1 hr; type: toxicity, organism-based; design: dose 30 mg/kg, route oral; conditions: in vivo
Mus musculus [37] = species: Mus musculus; test: Anticonvulsant activity in electric shock-induced Carworth farms No.1 albino mouse assessed as time of peak effect; type: functional
Rattus norvegicus [38] = test: Neurotoxicity in Sprague-Dawley rat assessed as sedation at 900 mg/kg, ip measured after 0.5 hrs; type: toxicity, organism-based; design: dose 900 mg/kg, route intraperitoneal; conditions: in vivo
Mus musculus [39] = test: Neurotoxicity in Carworth farms No.1 albino mouse assessed as neurological impairment at 30 mg/kg, ip measured after 4 hrs; type: toxicity, organism-based; design: dose 30 mg/kg, route intraperitoneal; conditions: in vivo
Rattus norvegicus [40] = test: Toxicity in Sprague-Dawley rat assessed as body weight change in protected animals at 900 mg/kg, ip measured after 0.5 hrs; type: organism-based; design: dose 900 mg/kg, route intraperitoneal; conditions: in vivo
Rattus norvegicus [41] = test: Anticonvulsant activity in Sprague-Dawley rat assessed as protection against maximum electroshock at 30 mg/kg, po measured after 2 hrs; type: functional, organism-based; design: dose 30 mg/kg
Mus musculus [42] = test: Anticonvulsant activity in Carworth farms No.1 albino mouse assessed as protection against 6 Hz electric current-induced seizure at 100 mg/kg, ip measured after 0.25 hrs; type: functional, organism-based; design: dose 100 mg/kg
Rattus norvegicus [43] = test: Anticonvulsant activity in Sprague-Dawley rat assessed as protection against maximum electroshock at 30 mg/kg, po measured after 1 hr; type: functional, organism-based; design: dose 30 mg/kg

In the case of `O=C1NC(=O)[C@@H](c2ccccc2)N2CCCC[C@H]12`, the Activity (Rattus norvegicus [1]) is reported as “Non-toxic”, the Activity (Mus musculus [2]) is reported as “inactive” and the ED50 (Mus musculus [3]) is reported as 38.2 mg/kg. For the same compound, the Activity (Mus musculus [4]) was “Non-toxic”, the Activity (Mus musculus [5]) was “Non-toxic” and the Activity (Mus musculus [6]) was “inactive”. The Activity (Mus musculus [7]) was “Non-toxic”, the Activity (Mus musculus [8]) was “Non-toxic” and the Activity (Mus musculus [9]) was “inactive”. The Activity (Rattus norvegicus [10]) was “Non-toxic”, the Activity (Mus musculus [11]) was “inactive” and the Activity (Mus musculus [12]) was “Non-toxic”. For the same compound, the Activity (Rattus norvegicus [13]) was “Toxic”, the Activity (Mus musculus [14]) was “inactive” and the Activity (Mus musculus [15]) was “inactive”. For the same compound, the Activity (Rattus norvegicus [16]) was “Non-toxic”, the Activity (Mus musculus [17]) was “inactive” and the Activity (Mus musculus [18]) was “Active”. For the same compound, the Activity (Rattus norvegicus [19]) was “Non-toxic”, the Activity (Mus musculus [20]) was “inactive” and the Activity (Mus musculus [21]) was “inactive”. For the same compound, the Activity (Mus musculus [22]) was “Non-toxic”, the Activity (Mus musculus [23]) was “Non-toxic” and the Activity (Rattus norvegicus [24]) was “Active”. The Activity (Mus musculus [25]) was “Active”, the Activity (Mus musculus [26]) was “inactive” and the Activity (Rattus norvegicus [27]) was -20 g. The Activity (Rattus norvegicus [28]) was “Active”, the Activity (Mus musculus [29]) was “inactive” and the Activity (Rattus norvegicus [30]) was “inactive”. For the same compound, the Activity (Mus musculus [31]) was “inactive”, the Activity (Mus musculus [32]) was “Active” and the Activity (Mus musculus [33]) was “Non-toxic”. The Activity (Mus musculus [34]) was “inactive”, the Activity (Rattus norvegicus [35]) was “inactive” and the Activity (Rattus norvegicus [36]) was “Non-toxic”. The Time (Mus musculus [37]) was 0.25 h, the Activity (Rattus norvegicus [38]) was “Toxic” and the Activity (Mus musculus [39]) was “Non-toxic”. For the same compound, the Activity (Rattus norvegicus [40]) was -17.5 g, the Activity (Rattus norvegicus [41]) was “inactive” and the Activity (Mus musculus [42]) was “Active”. The Activity (Rattus norvegicus [43]) was “inactive”.
